Experimental data published in patent US6034053A, “EGF-isoflavone conjugates for the prevention of restenosis” (Wayne Hughes Institute, priority 1998, dated 2000).

Test system: vascular injury-induced neointimal hyperplasia
Experiment: Murine restenosis model: photoactivated rose bengal vascular injury of the femoral artery, histomorphometric analysis
Type: in vivo, C57B1/6 mice
Details: for Stenosis Index (Mean ± SE), neointima/media ratio in areas of maximum neointimal hyperplasia, 4 weeks: 4 weeks after injury, i.p., EGF-Gen 0.1 mg/kg/dose twice daily for 28 days, Gen or quinazolines 2 mg/kg/dose once per day in 10% DMSO
Method: Three to four week old C57 B1/6 male mice (Taconic, Germantown, N.Y.) were housed in micro-isolator cages on a 12-hour day/night cycle and kept for 2 weeks on the Paigen's cocoa butter diet of 15.8% fat, 1.25% cholesterol and 0.5% sodium cholate (Harlan Teklad, Madison, Wis., U.S.A.) to induce high plasma cholesterol levels similar to those of patients with lipid disorders.
Mice were injected with 300 microliters of a 3 mg/ml photoactivated rose bengal solution (Aldrich, Milwaukee, Wis.) in sterile PBS via the tail vein and anesthetized with ketamine/xylazine solution (100 mg ketamine/kg and 5 […]). Photoactivation of rose bengal using percutaneous irradiation with a green light source (300 Watt Xenon arced lamp equipped with a 550 nanometer broad band interference filter, Oriel Scientific, Stratford, Conn.) was performed on the shaved left leg by placing a 3.2 mm glass fiber optic light guide directly into the left femoral vein/artery for 10 minutes. The unirradiated right femoral artery served as an internal control.
Following irradiation the mice were treated for either 14 days or 28 days with intraperitoneal injections of (1) EGF-Gen conjugate or unconjugated EGF (modified EGF not conjugated to genistein) at a dose level of 0. I mg/kg/dose once in the morning and once in the evening; or (2) 2 mg/kg/dose of unconjugated genistein or derivatives of 6,7-dimethoxyquinizalone dissolved in 10% DMSO once per day; or (3) with PBS.
At the times indicated, the animals were euthanized with ketamine/xylazine and perfused with PBS followed by 4% phosphate buffered formalin. PBS and formalin were pumped through the left ventricle of the heart and allowed to exit through a 3 mm incision through the interior wall of the right ventricle. […] Serial sections were examined for areas of maximum neointimal hyperplasia for which the ratios of neointima/media (stenosis index) were determined. […]
All numeric data are shown as mean±SEM. […] Cumulative percentage plots were analyzed using Wilcoxon statistics by Statview, Abacus Concepts, Inc., Berkeley, Calif. […]

O=c1c(-c2ccc(O)cc2)coc2cc(O)cc(O)c12 [Gen, 5,7,4'-trihydroxyisoflavone, reference compound]
Stenosis Index (Mean ± SE), neointima/media ratio in areas of maximum neointimal hyperplasia, 4 weeks: 1.03 ± 0.18
Stenosis Index (Mean ± SE), neointima/media ratio in areas of maximum neointimal hyperplasia, 4 weeks (listed as unconjugated Gen): 1.03±0.18
Effect on neointimal hyperplasia / neointima formation (in words) (injured femoral arteries, EGF-Gen at less than 5% of the highest nontoxic dose): ineffective
